In ChEMBL document CHEMBL5442175, “EUbOPEN Chemogenomics Library - PDSP Secondary Binding” (2024):
Counter-ions that a name gives are not always drawn.

Legend:
[1] = target: Beta-1 adrenergic receptor (Homo sapiens, UniProt P08588); experiment: (§1) PDSP Secondary Binding target: ADRB1 - Compounds are tested at 10 uM concentration, plate are incubated at room temperature in the dark for 90 minutes. Reaction are stopped by vacuum filtration onto 0.3% polyethyleneimine soaked filter mats using Filtermate harvester. Scintillation cocktail is then melted onto microwave-dried filters on a hot plate and the radio activity is counted in Microbia counter.
[2] = target: T1, Muscarinic acetylcholine receptor M4 (Homo sapiens, UniProt P08173); experiment: as §1, with “CHRM4” for “ADRB1”
T1 sequence (P08173 whole entry): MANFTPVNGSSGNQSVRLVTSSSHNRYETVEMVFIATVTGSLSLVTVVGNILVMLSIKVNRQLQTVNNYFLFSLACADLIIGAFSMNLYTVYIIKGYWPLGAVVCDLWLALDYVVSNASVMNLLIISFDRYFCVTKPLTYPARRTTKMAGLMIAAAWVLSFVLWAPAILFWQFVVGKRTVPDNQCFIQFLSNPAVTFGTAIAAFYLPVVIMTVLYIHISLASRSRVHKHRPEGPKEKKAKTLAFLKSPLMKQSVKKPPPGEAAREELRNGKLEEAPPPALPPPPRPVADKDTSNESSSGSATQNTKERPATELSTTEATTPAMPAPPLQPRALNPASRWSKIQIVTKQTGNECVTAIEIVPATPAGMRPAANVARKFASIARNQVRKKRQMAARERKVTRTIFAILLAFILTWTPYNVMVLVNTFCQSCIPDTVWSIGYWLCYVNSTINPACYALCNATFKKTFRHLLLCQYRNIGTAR

[3] = target: Beta-2 adrenergic receptor (Homo sapiens, UniProt P07550); experiment: as §1, with “ADRB2” for “ADRB1”
[4] = target: Histamine H3 receptor (Homo sapiens, UniProt Q9Y5N1); experiment: as §1, with “HRH3” for “ADRB1”
[5] = target: T2, Muscarinic acetylcholine receptor M2 (Homo sapiens, UniProt P08172); experiment: as §1, with “CHRM2” for “ADRB1”
T2 sequence (P08172 whole entry): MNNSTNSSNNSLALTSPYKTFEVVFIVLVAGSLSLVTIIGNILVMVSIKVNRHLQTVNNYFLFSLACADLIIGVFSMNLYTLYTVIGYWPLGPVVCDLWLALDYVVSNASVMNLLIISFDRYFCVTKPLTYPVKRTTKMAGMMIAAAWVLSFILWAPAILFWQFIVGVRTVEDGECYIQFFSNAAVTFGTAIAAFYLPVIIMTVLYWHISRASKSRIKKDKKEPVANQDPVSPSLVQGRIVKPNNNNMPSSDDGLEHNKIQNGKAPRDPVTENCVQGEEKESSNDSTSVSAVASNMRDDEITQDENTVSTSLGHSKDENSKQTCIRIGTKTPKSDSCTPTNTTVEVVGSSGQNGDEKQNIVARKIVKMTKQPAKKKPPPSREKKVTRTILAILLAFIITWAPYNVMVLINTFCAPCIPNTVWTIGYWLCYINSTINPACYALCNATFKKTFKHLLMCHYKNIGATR

[6] = target: T3, 5-hydroxytryptamine receptor 3A (Homo sapiens, UniProt P46098); experiment: as §1, with “HTR3A” for “ADRB1”
T3 sequence (P46098 whole entry): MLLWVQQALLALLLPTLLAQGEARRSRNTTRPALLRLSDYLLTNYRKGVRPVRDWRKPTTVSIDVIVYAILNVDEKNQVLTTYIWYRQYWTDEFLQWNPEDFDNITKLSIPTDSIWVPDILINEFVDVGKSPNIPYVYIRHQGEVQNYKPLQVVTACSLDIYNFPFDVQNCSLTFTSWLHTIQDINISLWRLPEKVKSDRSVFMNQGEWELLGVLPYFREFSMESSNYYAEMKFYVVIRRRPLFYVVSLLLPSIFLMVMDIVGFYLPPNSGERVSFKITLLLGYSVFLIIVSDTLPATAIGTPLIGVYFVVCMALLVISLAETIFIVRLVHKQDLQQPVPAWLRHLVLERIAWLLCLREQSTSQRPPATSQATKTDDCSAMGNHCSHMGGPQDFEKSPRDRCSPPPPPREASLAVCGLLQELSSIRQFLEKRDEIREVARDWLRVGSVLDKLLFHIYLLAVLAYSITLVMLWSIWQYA

[7] = target: Beta-3 adrenergic receptor (Homo sapiens, UniProt P13945); experiment: as §1, with “ADRB3” for “ADRB1”
[8] = target: Histamine H2 receptor (Homo sapiens, UniProt P25021); experiment: as §1, with “HRH2” for “ADRB1”
[9] = target: Kappa-type opioid receptor (Homo sapiens, UniProt P41145); experiment: as §1, with “OPRK1” for “ADRB1”
[10] = target: Translocator protein (Homo sapiens, UniProt P30536); experiment: as §1, with “TSPO” for “ADRB1”
[11] = target: Histamine H4 receptor (Homo sapiens, UniProt Q9H3N8); experiment: as §1, with “HRH4” for “ADRB1”
[12] = target: Delta-type opioid receptor (Homo sapiens, UniProt P41143); experiment: as §1, with “OPRD1” for “ADRB1”
Sequence of Delta-type opioid receptor (P41143 whole entry): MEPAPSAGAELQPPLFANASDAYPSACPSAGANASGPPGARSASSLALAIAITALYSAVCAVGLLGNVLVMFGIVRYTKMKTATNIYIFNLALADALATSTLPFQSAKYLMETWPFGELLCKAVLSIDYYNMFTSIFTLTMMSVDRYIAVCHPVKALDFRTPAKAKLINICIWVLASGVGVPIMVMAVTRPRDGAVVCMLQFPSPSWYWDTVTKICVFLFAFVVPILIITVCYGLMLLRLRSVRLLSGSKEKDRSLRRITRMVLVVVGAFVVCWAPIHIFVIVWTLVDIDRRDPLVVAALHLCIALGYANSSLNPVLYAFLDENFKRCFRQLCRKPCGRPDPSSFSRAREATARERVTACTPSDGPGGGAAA

Sequence of Beta-2 adrenergic receptor (P07550 whole entry): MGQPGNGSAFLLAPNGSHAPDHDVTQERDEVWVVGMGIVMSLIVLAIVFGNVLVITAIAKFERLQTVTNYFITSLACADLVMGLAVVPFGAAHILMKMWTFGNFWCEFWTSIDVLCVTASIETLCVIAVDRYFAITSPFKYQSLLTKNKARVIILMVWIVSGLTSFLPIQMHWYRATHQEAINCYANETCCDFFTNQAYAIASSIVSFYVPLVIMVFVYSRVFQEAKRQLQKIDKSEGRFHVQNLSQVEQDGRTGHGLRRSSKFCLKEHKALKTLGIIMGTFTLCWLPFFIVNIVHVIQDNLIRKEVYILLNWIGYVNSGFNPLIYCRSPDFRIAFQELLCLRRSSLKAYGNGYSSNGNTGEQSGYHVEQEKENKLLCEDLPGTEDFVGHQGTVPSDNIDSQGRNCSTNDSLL
Sequence of Histamine H3 receptor (Q9Y5N1 whole entry): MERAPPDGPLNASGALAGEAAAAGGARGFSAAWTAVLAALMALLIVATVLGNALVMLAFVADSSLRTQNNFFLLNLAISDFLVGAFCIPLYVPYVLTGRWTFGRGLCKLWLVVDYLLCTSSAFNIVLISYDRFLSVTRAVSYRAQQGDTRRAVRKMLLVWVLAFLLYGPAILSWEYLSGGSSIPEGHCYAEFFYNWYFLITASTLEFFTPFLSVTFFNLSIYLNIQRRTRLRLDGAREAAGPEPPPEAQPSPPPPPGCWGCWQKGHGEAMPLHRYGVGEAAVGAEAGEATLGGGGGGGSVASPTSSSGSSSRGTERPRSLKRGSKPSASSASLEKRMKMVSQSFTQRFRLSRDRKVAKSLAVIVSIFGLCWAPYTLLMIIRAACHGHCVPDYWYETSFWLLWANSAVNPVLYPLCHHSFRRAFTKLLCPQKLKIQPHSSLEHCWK
Sequence of Kappa-type opioid receptor (P41145 whole entry): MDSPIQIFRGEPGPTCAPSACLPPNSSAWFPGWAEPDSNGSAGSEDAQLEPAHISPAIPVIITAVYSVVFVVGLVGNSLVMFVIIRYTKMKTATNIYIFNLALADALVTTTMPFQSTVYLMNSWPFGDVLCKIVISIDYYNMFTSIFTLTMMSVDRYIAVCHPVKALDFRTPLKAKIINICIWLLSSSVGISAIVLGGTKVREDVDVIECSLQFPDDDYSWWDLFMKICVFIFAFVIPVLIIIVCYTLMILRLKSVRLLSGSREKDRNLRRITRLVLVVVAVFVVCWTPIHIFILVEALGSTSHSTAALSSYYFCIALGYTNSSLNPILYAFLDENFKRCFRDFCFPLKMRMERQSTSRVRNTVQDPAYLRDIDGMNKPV
Sequence of Beta-3 adrenergic receptor (P13945 whole entry): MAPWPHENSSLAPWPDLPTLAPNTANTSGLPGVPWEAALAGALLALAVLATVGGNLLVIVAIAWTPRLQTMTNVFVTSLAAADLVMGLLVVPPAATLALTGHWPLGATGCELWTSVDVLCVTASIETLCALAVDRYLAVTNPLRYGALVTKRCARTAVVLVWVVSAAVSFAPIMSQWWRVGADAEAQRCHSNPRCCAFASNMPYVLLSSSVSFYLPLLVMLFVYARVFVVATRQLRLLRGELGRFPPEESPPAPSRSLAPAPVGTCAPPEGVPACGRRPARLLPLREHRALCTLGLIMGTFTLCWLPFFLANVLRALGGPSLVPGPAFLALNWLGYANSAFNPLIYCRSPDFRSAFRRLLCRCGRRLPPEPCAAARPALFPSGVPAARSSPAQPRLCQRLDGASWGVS
Sequence of Translocator protein (P30536 whole entry): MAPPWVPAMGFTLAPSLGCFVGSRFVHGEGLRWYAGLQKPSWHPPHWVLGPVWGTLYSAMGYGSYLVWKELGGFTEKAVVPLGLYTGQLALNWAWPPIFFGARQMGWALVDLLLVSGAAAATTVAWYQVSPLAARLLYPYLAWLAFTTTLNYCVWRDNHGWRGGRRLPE
Sequence of Histamine H2 receptor (P25021 whole entry): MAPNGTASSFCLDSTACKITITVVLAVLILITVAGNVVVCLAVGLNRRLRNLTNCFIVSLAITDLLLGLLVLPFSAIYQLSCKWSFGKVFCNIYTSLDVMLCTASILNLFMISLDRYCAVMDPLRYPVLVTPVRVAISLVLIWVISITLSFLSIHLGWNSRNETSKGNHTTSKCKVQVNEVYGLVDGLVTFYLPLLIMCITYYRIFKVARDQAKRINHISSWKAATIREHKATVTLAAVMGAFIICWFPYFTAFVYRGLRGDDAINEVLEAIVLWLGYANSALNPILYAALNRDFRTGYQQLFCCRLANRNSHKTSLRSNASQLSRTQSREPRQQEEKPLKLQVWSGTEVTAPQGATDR
Sequence of Beta-1 adrenergic receptor (P08588 whole entry): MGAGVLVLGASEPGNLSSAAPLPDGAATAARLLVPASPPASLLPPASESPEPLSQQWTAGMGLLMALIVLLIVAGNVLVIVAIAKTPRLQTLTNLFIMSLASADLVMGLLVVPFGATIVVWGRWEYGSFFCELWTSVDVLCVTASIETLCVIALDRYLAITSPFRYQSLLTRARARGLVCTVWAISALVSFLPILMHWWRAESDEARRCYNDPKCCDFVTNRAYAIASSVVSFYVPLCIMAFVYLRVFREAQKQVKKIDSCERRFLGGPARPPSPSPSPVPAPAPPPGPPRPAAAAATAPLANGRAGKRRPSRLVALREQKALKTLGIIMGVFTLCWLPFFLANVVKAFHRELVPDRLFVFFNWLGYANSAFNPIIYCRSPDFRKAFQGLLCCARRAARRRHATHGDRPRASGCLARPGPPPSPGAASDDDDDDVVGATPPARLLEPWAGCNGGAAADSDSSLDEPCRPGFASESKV
Sequence of Histamine H4 receptor (Q9H3N8 whole entry): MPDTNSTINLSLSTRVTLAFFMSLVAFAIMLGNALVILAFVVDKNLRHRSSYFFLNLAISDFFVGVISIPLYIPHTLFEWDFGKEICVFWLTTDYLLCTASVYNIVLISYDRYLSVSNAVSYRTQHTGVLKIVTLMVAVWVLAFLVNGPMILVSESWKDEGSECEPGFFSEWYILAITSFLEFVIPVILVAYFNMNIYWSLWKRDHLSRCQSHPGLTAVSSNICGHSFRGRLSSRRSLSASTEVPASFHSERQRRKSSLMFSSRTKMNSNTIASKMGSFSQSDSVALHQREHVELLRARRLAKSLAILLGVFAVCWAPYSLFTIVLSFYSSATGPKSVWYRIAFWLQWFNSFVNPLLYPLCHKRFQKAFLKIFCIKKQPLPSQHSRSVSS

Q: For `CN(C)C(=O)N[C@H]1CC[C@H](CCN2CCN(c3cccc(Cl)c3Cl)CC2)CC1` [CARIPRAZINE HYDROCHLORIDE], which Ki [1] is on record?
A: 222 nM

Q: And the Ki [2]?
A: 779 nM

Q: For `CN1CCN(c2ccc(Nc3c4ccccc4nc4ccccc34)cc2)CC1`, which Ki [3] is on record?
A: 810 nM

Q: What about the Ki [4] of the same compound?
A: 82.4 nM

Q: What about the Ki [5] of the same compound?
A: 204 nM

Q: With `CCCCCNC(=N)N/N=C/c1c[nH]c2ccc(OC)cc12` [TEGASEROD MALEATE] as the compound, how does the Ki [6] read?
A: 5840 nM

Q: And the Ki [7]?
A: 4940 nM

Q: How did the Ki [8] turn out when `Cc1ccc2c(c1)c1c(n2CCc2ccc(C)nc2)CCN(C)C1` [LATREPIRDINE] was run?
A: 215 nM

Q: Which Ki [9] does the source give for `Cc1nc2sccn2c(=O)c1CCN1CCC(=C(c2ccc(F)cc2)c2ccc(F)cc2)CC1` [RITANSERIN] here?
A: 1450 nM

Q: Which Ki [1] does the source give for `Clc1cccc(COc2cncc(N3CCNCC3)n2)c1` here?
A: 2030 nM

Q: What about the Ki [6] of the same compound?
A: 63.7 nM

Q: And the Ki [2]?
A: 444 nM

Q: `S=C(NCCCc1c[nH]cn1)NCCCN(Cc1ccc(Cl)c(Cl)c1)c1ccc(Br)cn1` was tested. Which Ki [9] did it give?
A: 1110 nM

Q: What about the Ki [4] of the same compound?
A: 104 nM

Q: For `CCc1nn(CCCN2CCN(c3cccc(Cl)c3)CC2)c(=O)n1CCOc1ccccc1` [NEFAZODONE HYDROCHLORIDE], which Ki [10] is on record?
A: 1990 nM

Q: How did the Ki [9] turn out when `O=S1(=O)c2cccc3cccc(c23)N1CCCN1CCN(c2ccc(F)cc2)CC1` [FANANSERIN] was run?
A: 2870 nM

Q: Which Ki [3] does the source give for `O=c1ccc2ccc(OCCCCN3CCN(c4cccc5sccc45)CC3)cc2[nH]1` [BREXPIPRAZOLE] here?
A: 969 nM

Q: And the Ki [6]?
A: 1530 nM

Q: What about the Ki [4] of the same compound?
A: 2610 nM

Q: How did the Ki [11] turn out when `COc1cc(-n2cnc3cc(-c4ccc(Cl)cc4)sc3c2=O)ccc1OCCN1CCCC1` was run?
A: > 10000 nM

Q: What about the Ki [2] of the same compound?
A: 1700 nM

Q: Which Ki [4] does the source give for `COc1ccc(NC(=O)c2ccc(-c3ccc(-c4noc(C)n4)cc3C)cc2)cc1OCCN(C)C` here?
A: 709 nM

Q: What about the Ki [5] of the same compound?
A: 641 nM

Q: Which Ki [9] does the source give for `Cc1c(P(=S)(c2ccccc2)c2ccccc2)n2ccccc2[n+]1C/C=C/c1ccccc1` here?
A: 118 nM

Q: And the Ki [8]?
A: 2960 nM

Q: What about the Ki [5] of the same compound?
A: 805 nM

Q: And the Ki [7]?
A: 2050 nM

Q: And the Ki [2]?
A: 854 nM

Q: How did the Ki [7] turn out when `CCc1ccc(OCc2ccccc2C(=O)Nc2ccc3nc(C)cc(N)c3c2)cc1` was run?
A: 6310 nM

Q: What about the Ki [2] of the same compound?
A: 1960 nM

Q: And the Ki [10]?
A: 4010 nM

Q: How did the Ki [9] turn out when `COC(=O)C1=C(C)NC(C)=C(C(=O)OCCCN2CCC(c3ccccc3)(c3ccccc3)CC2)[C@H]1c1cccc([N+](=O)[O-])c1` [NIGULDIPINE] was run?
A: 347 nM

Q: And the Ki [4]?
A: 2140 nM

Q: And the Ki [12]?
A: 399 nM

Q: And the Ki [10]?
A: 953 nM

Q: How did the Ki [7] turn out when `CN1CCCC(n2nc(Cc3ccc(Cl)cc3)c3ccccc3c2=O)CC1` (stereo not drawn) [AZELASTINE HYDROCHLORIDE] was run?
A: > 10000 nM

Q: With `C[C@H](Cc1cc2c(c(C(N)=O)c1)N(CCCO)CC2)NCCOc1ccccc1OCC(F)(F)F` [SILODOSIN] as the compound, how does the Ki [3] read?
A: 32.8 nM

Q: Which Ki [3] does the source give for `N#Cc1ccc2[nH]cc(CCCCN3CCN(c4ccc5oc(C(N)=O)cc5c4)CC3)c2c1` [VILAZODONE HYDROCHLORIDE] here?
A: 2490 nM
